Test results published in patent publication US8513421B2, “Substituted hydroxamic acids and uses thereof” (Millennium Pharmaceuticals, Inc., priority 2010, dated 2013).

Molecular target: T1, purified human HDAC6 (Homo sapiens, UniProt Q9UBN7)
T1 construct: purchased BPS Bioscience 5006
T1 sequence (Q9UBN7 1-1215): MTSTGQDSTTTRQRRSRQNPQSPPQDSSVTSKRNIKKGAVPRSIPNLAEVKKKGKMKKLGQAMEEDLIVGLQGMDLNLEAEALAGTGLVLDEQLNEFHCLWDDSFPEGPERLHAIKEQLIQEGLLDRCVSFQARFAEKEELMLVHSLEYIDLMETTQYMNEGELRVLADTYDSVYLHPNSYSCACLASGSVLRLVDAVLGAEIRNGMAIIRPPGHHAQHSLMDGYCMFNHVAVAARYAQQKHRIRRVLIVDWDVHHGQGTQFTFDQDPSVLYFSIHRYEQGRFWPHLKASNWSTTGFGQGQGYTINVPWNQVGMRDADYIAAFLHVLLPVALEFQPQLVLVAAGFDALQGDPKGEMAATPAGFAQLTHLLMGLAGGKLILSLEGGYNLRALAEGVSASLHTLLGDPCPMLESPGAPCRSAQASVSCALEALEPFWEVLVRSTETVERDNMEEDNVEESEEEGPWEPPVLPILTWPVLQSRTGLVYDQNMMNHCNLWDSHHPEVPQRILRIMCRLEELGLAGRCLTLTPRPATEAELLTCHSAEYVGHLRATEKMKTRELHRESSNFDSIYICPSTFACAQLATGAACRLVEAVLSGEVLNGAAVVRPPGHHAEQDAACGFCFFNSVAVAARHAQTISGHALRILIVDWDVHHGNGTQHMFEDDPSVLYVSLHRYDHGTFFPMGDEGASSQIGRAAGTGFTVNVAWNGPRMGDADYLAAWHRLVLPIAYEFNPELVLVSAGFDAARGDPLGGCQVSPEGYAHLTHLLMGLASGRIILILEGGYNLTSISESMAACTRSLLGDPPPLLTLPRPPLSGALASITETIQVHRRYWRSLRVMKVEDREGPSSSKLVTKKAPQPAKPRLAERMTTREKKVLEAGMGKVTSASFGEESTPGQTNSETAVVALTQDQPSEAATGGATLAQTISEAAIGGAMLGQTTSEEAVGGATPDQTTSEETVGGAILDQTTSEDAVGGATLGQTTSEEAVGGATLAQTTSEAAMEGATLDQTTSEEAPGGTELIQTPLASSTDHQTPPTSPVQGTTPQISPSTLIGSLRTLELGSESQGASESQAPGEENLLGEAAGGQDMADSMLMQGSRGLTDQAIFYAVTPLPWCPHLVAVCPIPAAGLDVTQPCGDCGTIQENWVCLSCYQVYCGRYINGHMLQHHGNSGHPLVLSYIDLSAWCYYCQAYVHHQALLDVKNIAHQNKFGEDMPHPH
Experiment: HDAC6 Enzyme Assay
Assay type: biochemical
Settings: purified human HDAC6, substrate Ac-Arg-Gly-Lys(Ac)-AMC, 1 hour at 30° C.
Procedure: To measure the inhibition of HDAC6 activity, purified human HDAC6 (BPS Bioscience; Cat. No. 5006) is incubated with substrate Ac-Arg-Gly-Lys(Ac)-AMC peptide (Bachem Biosciences; Cat. No. I-1925) for 1 hour at 30° C. in the presence of test compounds or vehicle DMSO control. The reaction is stopped with the HDAC inhibitor trichostatin A (Sigma; Cat. No. T8552) and the amount of Arg-Gly-Lys-AMC generated is quantitated by digestion with trypsin (Sigma; Cat. No. T1426) and subsequent measurement of the amount of AMC released using a fluorescent plate reader (Pherastar; BMG Technologies) set at Ex 340 nm and Em 460 nm. Concentration response curves are generated by calculating the fluorescence increase in test compound-treated samples relative to DMSO-treated controls, and enzyme inhibition (IC50) values are determined from those curves.

SMILES	IC50
CN(C)Cc1cc(C(=O)Nc2ccc3ncc(C(=O)NO)cc3c2)cc(C(F)(F)F)c1 [Compound I-1, 6-{[3-[(dimethylamino)methyl]-5-(trifluoromethyl)benzoyl]amino}-N-hydroxyquinoline-3-carboxamide]	100 to 500 nM
O=C(NO)c1cnc2ccc(Oc3cccc(Cl)c3)cc2c1 [Compound I-2, 6-(3-chlorophenoxy)-N-hydroxyquinoline-3-carboxamide]	100 to 500 nM
COc1ccc2cc(C(=O)NO)cnc2c1 [Compound I-3, N-hydroxy-7-methoxyquinoline-3-carboxamide]	> 500 nM
O=C1CCc2c(Oc3ccc4cc(C(=O)NO)cnc4c3)ccnc2N1 [Compound I-4, N-hydroxy-7-[(7-oxo-5,6,7,8-tetrahydro-1,8-naphthyridin-4-yl)oxy]quinoline-3-carboxamide]	100 to 500 nM
COc1ccc(C(=O)Nc2ccc3cc(C(=O)NO)cnc3c2)cc1 [Compound I-5, N-hydroxy-7-[(4-methoxybenzoyl)amino]quinoline-3-carboxamide]	100 to 500 nM
O=C(NO)c1cnc2ccc(NC(=O)C3CC3)cc2c1 [Compound I-6, 6-[(cyclopropylcarbonyl)amino]-N-hydroxyquinoline-3-carboxamide]	< 100 nM
O=C(NO)c1cnc2ccc(Nc3ccccc3)cc2c1 [Compound I-7, 6-anilino-N-hydroxyquinoline-3-carboxamide]	100 to 500 nM
Cn1cc(-c2cc(C(=O)Nc3ccc4ncc(C(=O)NO)cc4c3)cc(C(F)(F)F)c2)cn1 [Compound I-8, N-hydroxy-6-{[3-(1-methyl-1H-pyrazol-4-yl)-5-(trifluoromethyl)benzoyl]amino}quinoline-3-carboxamide]	< 100 nM
O=C(NO)c1cnc2ccc(Nc3ccncc3)cc2c1 [Compound I-9, N-hydroxy-6-(pyridin-4-ylamino)quinoline-3-carboxamide]	100 to 500 nM
CC(C)(C)OC(=O)Nc1ccc2cc(C(=O)NO)cnc2c1 [Compound I-10, tert-butyl {3-[(hydroxyamino)carbonyl]quinolin-7-yl}carbamate]	< 100 nM
O=C(NO)c1cnc2ccc(-c3ccncc3)cc2c1 [Compound I-11, N-hydroxy-6-pyridin-4-ylquinoline-3-carboxamide]	< 100 nM
O=C(NO)c1cnc2ccc(Oc3ccccc3)cc2c1 [Compound I-12, N-hydroxy-6-phenoxyquinoline-3-carboxamide]	100 to 500 nM
O=C(NO)c1cnc2ccc(NS(=O)(=O)c3ccccc3)cc2c1 [Compound I-13, N-hydroxy-6-[(phenylsulfonyl)amino]quinoline-3-carboxamide]	< 100 nM
O=C(Nc1ccccc1)Nc1ccc2ncc(C(=O)NO)cc2c1 [Compound I-14, 6-[(anilinocarbonyl)amino]-N-hydroxyquinoline-3-carboxamide]	< 100 nM
O=C(NO)c1cnc2cc(Oc3cccc(Cl)c3)ccc2c1 [Compound I-15, 7-(3-chlorophenoxy)-N-hydroxyquinoline-3-carboxamide]	100 to 500 nM
O=C(NO)c1cnc2cc(Oc3ccc(Cl)cc3)ccc2c1 [Compound I-16, 7-(4-chlorophenoxy)-N-hydroxyquinoline-3-carboxamide]	100 to 500 nM
O=C(NO)c1cnc2ccc(NCc3ccccc3)cc2c1 [Compound I-17, 6-(benzylamino)-N-hydroxyquinoline-3-carboxamide]	< 100 nM
O=C(NO)c1cnc2ccc(CCc3ccccc3)cc2c1 [Compound I-18, N-hydroxy-6-(2-phenylethyl)quinoline-3-carboxamide]	< 100 nM
COc1ccc2ncc(C(=O)NO)cc2c1 [Compound I-19, N-hydroxy-6-methoxyquinoline-3-carboxamide]	> 500 nM
O=C(NO)c1cnc2ccc(NC(=O)c3ccccc3)cc2c1 [Compound I-20, 6-(benzoylamino)-N-hydroxyquinoline-3-carboxamide]	< 100 nM

Other lines, results leading:

IC50	SMILES
< 100 nM	CC(C)(C)OC(=O)Nc1ccc2ncc(C(=O)NO)cc2c1 [Compound I-21, tert-butyl {3-[(hydroxyamino)carbonyl]quinolin-6-yl}carbamate]
< 100 nM	COc1ccc(C(=O)Nc2ccc3ncc(C(=O)NO)cc3c2)cc1 [Compound I-22, N-hydroxy-6-[(4-methoxybenzoyl)amino]quinoline-3-carboxamide]
100 to 500 nM	O=C(NO)c1cnc2cc(Oc3ccnc(NC(=O)C4CC4)c3)ccc2c1 [Compound I-23, 7-({2-[(cyclopropylcarbonyl)amino]pyridin-4-yl}oxy)-N-hydroxyquinoline-3-carboxamide]
< 100 nM	O=C(NO)c1cnc2cc(Nc3ccccc3)ccc2c1 [Compound I-24, 7-anilino-N-hydroxyquinoline-3-carboxamide]
100 to 500 nM	O=C(NO)c1cnc2cc(-c3ccc(Cl)cc3)ccc2c1 [Compound I-25, 7-(4-chlorophenyl)-N-hydroxyquinoline-3-carboxamide]
100 to 500 nM	O=C1CCc2c(Oc3ccc4ncc(C(=O)NO)cc4c3)ccnc2N1 [Compound I-26, N-hydroxy-6-[(7-oxo-5,6,7,8-tetrahydro-1,8-naphthyridin-4-yl)oxy]quinoline-3-carboxamide]
100 to 500 nM	O=C(NO)c1cnc2ccc(-c3ccc(Cl)cc3)cc2c1 [Compound I-27, 6-(4-chlorophenyl)-N-hydroxyquinoline-3-carboxamide]
< 100 nM	O=C(NO)c1cnc2cc(Nc3ccncc3)ccc2c1 [Compound I-28, N-hydroxy-7-(pyridin-4-ylamino)quinoline-3-carboxamide]
100 to 500 nM	O=C(NO)c1cnc2ccc(Oc3ccc(Cl)cc3)cc2c1 [Compound I-29, 6-(4-chlorophenoxy)-N-hydroxyquinoline-3-carboxamide]
< 100 nM	O=C(NO)c1cnc2ccc(Nc3ccc(Cl)cc3)cc2c1 [Compound I-30, 6-[(4-chlorophenyl)amino]-N-hydroxyquinoline-3-carboxamide]
< 100 nM	O=C(NO)c1cnc2ccc(Oc3ccnc(NC(=O)C4CC4)c3)cc2c1 [Compound I-31, 6-({2-[(cyclopropylcarbonyl)amino]pyridin-4-yl}oxy)-N-hydroxyquinoline-3-carboxamide]
100 to 500 nM	O=C(NO)c1cnc2ccc(Oc3ccncc3)cc2c1 [Compound I-32, N-hydroxy-6-(pyridin-4-yloxy)quinoline-3-carboxamide]
100 to 500 nM	O=C(NO)c1cnc2cc(-c3ccncc3)ccc2c1 [Compound I-33, N-hydroxy-7-pyridin-4-ylquinoline-3-carboxamide]
